# In patent publication US7919577B2, “Adrenocorticotropic hormone analogs and related methods” (Colorado Seminary, priority 2004, dated 2011):
# Legend:
# [1] = tested on: dexamethasone-suppressed male FVB/N mice; test: in vivo Serum Corticosteroid Induction Assay (Example 1); design: species or system mouse; details: for in vivo activity, % corticosterone induction relative to mACTH(1-24): FIG. 5, method of Example 1; for Percent reduction in serum corticosteroid: relative to unmodified mACTH(1-24), 1 μg subcutaneously to dexamethasone-suppressed mice, blood one hour later
# Description: An in vivo Serum Corticosteroid Induction Assay measures the level of corticosteroid or corticosterone in the blood stream of a subject. More specifically, the in vivo Serum Corticosteroid Induction Assay can include the following steps: first, an agent to suppress endogenous ACTH production was administered to a mouse subject, such as an intraperitoneal injection of dexamethasone; second, after waiting a suitable period of time for suppression of endogenous ACTH production (e.g., 1.5-2.0 hours), a test compound can be administered to the mouse by a suitable method, such as intraperitoneal or subcutaneous injection; and third, after waiting a suitable period of time (e.g., 1 hour) for action of the injected test compound, a blood sample can be taken from the subject and the level of serum corticosterone can be determined by a suitable method, such as a competitive radioimmunoassay using ^125I RIA kit (ICN, Costa Mesa, Calif.). Example 1 describes a murine in vivo Serum Corticosteroid Induction Assay in detail.
# The corticosteroid or corticosterone secretion induced in vivo by an ACTH analog compound was compared to the level of corticosteroid secretion produced by an unmodified ACTH compound by measuring blood serum corticosteroid after administering either the ACTH or ACTH analog as test compounds. […] ACTH analog compositions with decreased function were identified by measuring corticosterone levels using standard radioimmunoassay (RIA) analysis on blood samples collected one hour after administering the mACTH(1-24) or ACTH analog compound to dexamethasone-suppressed mice. In FIG. 1, the potency of various ACTH analog peptides is expressed as percent induction of corticosterone, with mouse ACTH being 100%. […] The percent of corticosterone induction 12 of ACTH analog Compounds in Samples 2-10 are shown as a percentage of the concentration of serum corticosterone 20 measured for unmodified mACTH(1-24) in the in vivo Serum Corticosteroid Adrenal Induction Assay. The structural modifications and measured percentage reduction in serum measured for Samples 2-10 in FIG. 1 are shown in Table 3 below.
# The in vivo Serum Corticosteroid Induction Assay was performed according the following method. First, two to three month-old male FVB/N mice from our colony, five per group, were injected intraperitoneally with dexamethasone (0.4 mg/0.1 ml PBS per mouse; Sigma, St. Louis, Mo.) to suppress their endogenous ACTH production. See Hajos, G T et al., “Studies of the potency of polypeptides with ACTH action by a new method based on continuous measurement of plasma corticosterone,” Steroids Lipids Res 3:225-228 (1972), Costa, J L, et al., “Mutational analysis of evolutionarily conserved ACTH residues,” Gen Comp Endocrinol, 136:12-16 (2004), and Karpac, J, et al., “Development, Maintenance, and Function of the Adrenal Gland in Early Postnatal Pro-opiomelanocortin Null Mutant Mice,” Endocrinology (2005), published online ahead of print Feb. 24, 2005, all of which are incorporated herein by reference.
# Second, ninety to one hundred twenty minutes later, the dexamethasone-suppressed mice were injected subcutaneously between the shoulder blades with either unmodified mACTH(1-24) or one of several ACTH analog peptide compounds (1 μg/0.1 mL PBS/0.5% BSA), or with vehicle alone (control) (0.1 mL PBS/0.5% BSA). The following ACTH analog peptide compounds were administered to separate mice: 1: murine ACTH1-24; 2: V26F,E30K; 3: P19W,K21E,Y23R; 4: E30K,P36R; 5: ALA19-24; 6: V26F,P36R; 7: P19W, K21E; 8: P19W,K21A,delY23; 9: P19W,K21A; 10: KRRP16-19RAAW (AT814) (SEQ ID NO:20).
# Third, one hour later, blood was collected within less than 1 minute from a small incision in the tail, and serum was flash-frozen and stored at −80° C. until assayed. Serum corticosterone was determined by competitive radioimmunoassay (^125I RIA kit; ICN, Costa Mesa, Calif.) according to the manufacturer's recommendations. One microliter of serum was used per assay sample. […]
# [2] = tested on: explanted mouse adrenal membrane (adrenal halves); test: in vitro Serum-free Adrenal Inhibition Assay (Example 4); assay type: cell-based; details: for in vitro activity, % corticosterone induction relative to mACTH(1-24): FIG. 5, method of Example 4; for in vitro activity compared with in vivo activity of the same analog: FIG. 5, in vitro Example 4, in vivo Example 1
# Description: A series of separate in vitro Serum-Free Adrenal Corticosteroid Inhibition Assay were performed to identify ACTH analogs that inhibit ACTH-induced adrenal hormone production in vitro. The concentration of corticosterone was measured according to the procedure of Example 4 in a serum-free culture medium containing explanted adrenal membrane and unmodified ACTH, AT814 ACTH analog (SEQ ID NO:20), or a combination of ACTH and AT814 at 100 ng/mL each. […] Corticosterone levels were taken at 2.0 hours after the adrenal membrane was placed in the serum free M199 medium, and each corticosterone level in Table 5 is an average of five samples.
# The in vitro Serum-free Adrenal Inhibition Assay was performed according the following method. First, adrenals were removed from mice, dissected free of fat, and cut in half. See Costa, J L, et al., “Mutational analysis of evolutionarily conserved ACTH residues,” Gen Comp Endocrinol. 136:12-16 (2004); and Weber, M M, et al., “Postnatal overexpression of insulin-like growth factor II in transgenic mice is associated with adrenocortical hyperplasia and enhanced steroidogenesis,” Endocrinology 140:1537-1543 (1999), incorporated herein by reference.
# Second, each adrenal half was placed into an individual well of a 4-well dish, one dish per mouse. Adrenal halves were incubated at 5% CO2, 37° C., in 0.5 ml serum-free medium (M199; Invitrogen) for 30 minutes to equilibrate.
# Third, medium was removed and replaced by 0.5 ml M199 containing ACTH, AT814, or both, at 100 ng/ml each; controls had no peptides added.
# Fourth, after 2 hours of incubation, the medium was removed, pooled for all four halves from each mouse, and assayed by corticosterone using standard RIA methods. corticosterone was determined by competitive radioimmunoassay (^125I RIA kit; ICN, Costa Mesa, Calif.) according to the manufacturer's recommendations. One microliter of serum was used per assay sample. Samples were run in duplicates.
Substance,"in vivo activity, % corticosterone induction relative to mACTH(1-24) [1]","in vitro activity, % corticosterone induction relative to mACTH(1-24) [2]",in vitro activity compared with in vivo activity of the same analog [2],Percent reduction in serum corticosteroid [1] [%],"in vivo activity, percent greater than the in vitro activity of unmodified mACTH ([1]; FIG. 5)","serum half life ([1]; inferred from in vivo versus in vitro activity, FIG. 5)"
"(P19W, K21A)mACTH (SYSMEHFRWGKPVGKKRRWVAVYPNVAENESAEAFPLEF; Corticotropin residues 1-24; UniProt P01193 124-162, looked up, variant P19W K21A) [Sample 9]",reduced,reduced,greater than its in vivo activity,–,–,–
"(P19W, K21A, delY23)mACTH (SYSMEHFRWGKPVGKKRRWVAVPNVAENESAEAFPLEF; Corticotropin; UniProt P01193 124-162, looked up, variant P19W K21A Y23*) [Sample 8]",–,–,–,76.0,–,–
"(K16A, R18A)mACTH(1-24) [ACTH analog 430]",reduced,reduced,greater than its in vivo activity,–,–,–
"(K16A, R17A)mACTH(1-24) [ACTH analog 420]",reduced,reduced,greater than its in vivo activity,–,–,–
"(K15Q, R17Q)mACTH(1-24) [ACTH analog 440]",reduced,reduced,greater than its in vivo activity,–,–,–
"(K15A, R17A)mACTH(1-24) [ACTH analog 410]",reduced,reduced,greater than its in vivo activity,–,–,–
(PVKVYP19-24AAAAA)mACTH [Sample 5],greater relative to both mACTH and to other ACTH analogs,–,–,51,about 50%,increased serum half life
